Data: paper doi:10.1101/2025.11.12.688093v2 (biorxiv, 2026)

What was measured:
Format in all cases: biochemical
CDK3/CycE1 = CDK3/CycE1 (Homo sapiens, UniProt Q00526); experiment: kinase panel, HTRF or ADP-Glo, single dose; settings: read-out: % inhibition at 10 μM
CDK1/CycA2 = CDK1/CycA2 (Homo sapiens, UniProt P06493); experiment: kinase panel, HTRF or ADP-Glo, single dose; settings: read-out: % inhibition at 10 μM
CDK9/CycT1 = CDK9/CycT1 (Homo sapiens, UniProt P50750); experiment: kinase panel, HTRF or ADP-Glo, single dose; settings: read-out: % inhibition at 10 μM
CDK2/CycE1 = CDK2/CycE1 (Homo sapiens, UniProt P24941); experiment: kinase panel, HTRF or ADP-Glo, single dose; settings: read-out: % inhibition at 10 μM
[1] = target: recombinant CK2 (casein kinase 2) (Homo sapiens, UniProt P68400); experiment: Kinase-Glo residual ATP luminescence
CDK4/CycD1 = CDK4/CycD1 (Homo sapiens, UniProt P11802); experiment: kinase panel, HTRF or ADP-Glo, single dose; settings: read-out: % inhibition at 1 μM
Sequence of CDK4/CycD1 (P11802 2-303): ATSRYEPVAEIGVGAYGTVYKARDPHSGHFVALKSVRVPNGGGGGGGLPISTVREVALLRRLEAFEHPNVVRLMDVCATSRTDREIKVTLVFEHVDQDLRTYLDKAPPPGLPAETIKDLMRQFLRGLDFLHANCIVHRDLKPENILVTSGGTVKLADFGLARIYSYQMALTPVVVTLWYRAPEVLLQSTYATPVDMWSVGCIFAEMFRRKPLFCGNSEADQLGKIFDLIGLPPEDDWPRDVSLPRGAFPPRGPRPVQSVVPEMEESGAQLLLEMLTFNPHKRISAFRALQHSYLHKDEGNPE
Sequence of CDK4/CycD1 (P24385 whole entry partner): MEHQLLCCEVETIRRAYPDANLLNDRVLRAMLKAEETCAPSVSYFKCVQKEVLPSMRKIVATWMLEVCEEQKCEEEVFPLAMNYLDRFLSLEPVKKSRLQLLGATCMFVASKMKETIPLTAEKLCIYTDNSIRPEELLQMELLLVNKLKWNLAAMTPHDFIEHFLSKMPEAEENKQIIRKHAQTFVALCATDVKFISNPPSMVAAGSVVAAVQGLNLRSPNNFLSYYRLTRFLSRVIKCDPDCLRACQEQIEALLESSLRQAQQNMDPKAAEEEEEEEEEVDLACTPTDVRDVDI

Sequence of recombinant CK2 (casein kinase 2) (P68400 whole entry): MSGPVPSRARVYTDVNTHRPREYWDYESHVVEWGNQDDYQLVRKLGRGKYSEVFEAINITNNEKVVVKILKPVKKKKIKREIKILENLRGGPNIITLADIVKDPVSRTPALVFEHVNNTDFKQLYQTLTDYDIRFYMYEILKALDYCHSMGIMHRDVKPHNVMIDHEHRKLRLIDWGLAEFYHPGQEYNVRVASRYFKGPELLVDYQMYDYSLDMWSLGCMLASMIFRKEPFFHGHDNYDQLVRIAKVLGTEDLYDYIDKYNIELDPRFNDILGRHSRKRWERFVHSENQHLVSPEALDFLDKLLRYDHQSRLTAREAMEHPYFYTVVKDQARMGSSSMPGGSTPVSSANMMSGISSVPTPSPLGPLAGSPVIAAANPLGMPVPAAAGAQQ
Sequence of recombinant CK2 (casein kinase 2) (P67870 2-215 partner): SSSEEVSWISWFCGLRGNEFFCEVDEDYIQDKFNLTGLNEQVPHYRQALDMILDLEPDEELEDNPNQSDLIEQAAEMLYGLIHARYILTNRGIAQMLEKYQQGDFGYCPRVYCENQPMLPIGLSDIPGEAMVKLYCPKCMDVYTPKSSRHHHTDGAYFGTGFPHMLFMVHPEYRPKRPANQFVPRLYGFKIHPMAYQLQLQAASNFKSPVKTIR
Sequence of CDK9/CycT1 (P50750 whole entry): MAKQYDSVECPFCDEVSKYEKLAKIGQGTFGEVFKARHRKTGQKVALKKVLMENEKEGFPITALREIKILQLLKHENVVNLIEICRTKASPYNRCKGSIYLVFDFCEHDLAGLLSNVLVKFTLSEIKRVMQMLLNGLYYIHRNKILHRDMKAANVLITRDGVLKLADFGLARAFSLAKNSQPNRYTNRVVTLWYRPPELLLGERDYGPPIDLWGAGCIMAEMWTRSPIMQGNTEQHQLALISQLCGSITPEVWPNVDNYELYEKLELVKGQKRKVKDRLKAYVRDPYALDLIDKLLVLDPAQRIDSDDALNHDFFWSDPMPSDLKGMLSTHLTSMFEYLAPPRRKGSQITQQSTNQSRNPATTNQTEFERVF
Sequence of CDK9/CycT1 (O60563 whole entry partner): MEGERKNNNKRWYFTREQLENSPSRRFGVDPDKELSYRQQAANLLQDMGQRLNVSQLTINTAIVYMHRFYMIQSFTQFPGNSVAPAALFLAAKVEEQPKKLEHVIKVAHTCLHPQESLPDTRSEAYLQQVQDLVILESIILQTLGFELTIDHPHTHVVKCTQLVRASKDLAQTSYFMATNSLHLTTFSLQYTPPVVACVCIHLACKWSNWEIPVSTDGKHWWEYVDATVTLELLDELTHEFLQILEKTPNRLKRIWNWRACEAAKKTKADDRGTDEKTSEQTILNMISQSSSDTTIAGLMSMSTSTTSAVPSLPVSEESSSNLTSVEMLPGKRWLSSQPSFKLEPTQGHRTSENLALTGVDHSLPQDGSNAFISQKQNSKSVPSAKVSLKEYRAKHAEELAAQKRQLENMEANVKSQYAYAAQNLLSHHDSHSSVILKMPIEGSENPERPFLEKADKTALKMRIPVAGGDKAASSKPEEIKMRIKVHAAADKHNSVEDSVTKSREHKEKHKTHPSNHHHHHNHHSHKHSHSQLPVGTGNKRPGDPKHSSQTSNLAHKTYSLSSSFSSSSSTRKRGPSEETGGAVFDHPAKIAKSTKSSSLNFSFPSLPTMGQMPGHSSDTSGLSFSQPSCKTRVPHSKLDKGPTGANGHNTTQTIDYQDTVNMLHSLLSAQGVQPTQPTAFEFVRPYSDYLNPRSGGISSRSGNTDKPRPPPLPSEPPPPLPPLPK
Sequence of CDK1/CycA2 (P20248 whole entry): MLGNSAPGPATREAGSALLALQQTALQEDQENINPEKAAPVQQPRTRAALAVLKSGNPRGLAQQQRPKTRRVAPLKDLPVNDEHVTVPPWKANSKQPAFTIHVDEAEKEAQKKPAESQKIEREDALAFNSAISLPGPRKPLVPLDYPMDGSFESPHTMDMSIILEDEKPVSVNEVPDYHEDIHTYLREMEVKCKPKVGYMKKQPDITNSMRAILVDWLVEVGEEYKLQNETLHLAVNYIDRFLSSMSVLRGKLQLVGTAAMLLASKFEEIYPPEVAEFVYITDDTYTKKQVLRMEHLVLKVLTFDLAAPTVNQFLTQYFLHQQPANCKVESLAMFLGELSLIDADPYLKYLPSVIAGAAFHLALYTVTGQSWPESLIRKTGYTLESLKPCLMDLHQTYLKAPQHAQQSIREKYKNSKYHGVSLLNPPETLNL
Sequence of CDK1/CycA2 (P06493 whole entry): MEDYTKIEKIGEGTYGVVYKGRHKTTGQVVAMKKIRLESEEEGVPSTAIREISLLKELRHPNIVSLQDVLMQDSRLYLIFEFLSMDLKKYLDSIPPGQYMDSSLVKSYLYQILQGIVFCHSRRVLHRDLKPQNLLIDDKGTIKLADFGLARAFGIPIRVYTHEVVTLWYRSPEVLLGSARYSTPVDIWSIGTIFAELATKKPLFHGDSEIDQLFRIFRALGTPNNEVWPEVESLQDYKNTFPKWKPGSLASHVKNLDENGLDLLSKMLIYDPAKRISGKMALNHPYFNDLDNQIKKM
Sequence of CDK3/CycE1 (Q00526 whole entry): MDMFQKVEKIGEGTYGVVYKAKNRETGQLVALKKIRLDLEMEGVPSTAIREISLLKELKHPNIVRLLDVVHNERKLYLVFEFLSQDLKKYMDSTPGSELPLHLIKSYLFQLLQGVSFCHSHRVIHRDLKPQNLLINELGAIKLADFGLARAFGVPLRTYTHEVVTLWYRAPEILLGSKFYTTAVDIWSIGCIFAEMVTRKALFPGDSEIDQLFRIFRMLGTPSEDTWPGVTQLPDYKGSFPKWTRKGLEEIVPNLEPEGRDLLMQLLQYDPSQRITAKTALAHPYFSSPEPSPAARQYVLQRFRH
Sequence of CDK3/CycE1 (P24864 whole entry, further chain): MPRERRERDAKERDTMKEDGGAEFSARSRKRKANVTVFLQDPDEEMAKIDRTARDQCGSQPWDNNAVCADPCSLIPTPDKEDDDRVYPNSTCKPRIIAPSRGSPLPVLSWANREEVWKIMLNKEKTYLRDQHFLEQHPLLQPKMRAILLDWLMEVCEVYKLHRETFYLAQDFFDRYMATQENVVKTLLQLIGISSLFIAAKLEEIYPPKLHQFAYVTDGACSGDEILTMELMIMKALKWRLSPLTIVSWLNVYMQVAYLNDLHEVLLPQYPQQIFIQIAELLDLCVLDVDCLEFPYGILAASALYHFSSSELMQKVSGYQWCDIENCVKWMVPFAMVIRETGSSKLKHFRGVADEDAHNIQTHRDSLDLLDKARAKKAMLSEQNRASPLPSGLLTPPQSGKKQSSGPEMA

SMILES	inhibition at 10 µM (CDK3/CycE1)	inhibition at 10 µM (CDK1/CycA2)	inhibition at 10 µM (CDK9/CycT1)	inhibition at 10 µM (CDK2/CycE1)	IC50 [1]	inhibition at 1 µM (CDK4/CycD1)
Cc1cccc(NCN2C(=O)S/C(=C\c3ccccc3)C2=O)c1 [compound 3, Compound 3]	15.3%	14.7%	36.1%	12.4%	199 nM	
N=C1NC(=O)/C(=C/c2ccc(O)c([N+](=O)[O-])c2)S1 [compound 2, Compound 2]					156 nM	10.2%
